From patent publication US20210392895A1, “NOVEL OXADIAZOLES” (PI INDUSTRIES LIMITED, priority 2018, published 2021)

Tested on: Phakopsora pachyrhizi
Test: Phakopsora pachyrhizi test in soybean (greenhouse, preventive activity, disease severity rating)
Format: in vivo
Settings: preventive spray on soybean, compared to the untreated check
Protocol: To test the preventive activity of compounds, healthy young soybean plants, raised in the greenhouse, were sprayed with the active compound solution at the stated application rates inside spray cabinets using hallowcone nozzles. One day after treatment, the plants were inoculated with a suspension containing 2.1×10^6 Phakopsora pachyrhizi spores. The inoculated plants were then kept in the greenhouse chamber at 25° C. temperature and 90% relative humidity for disease expression. A visual assessment of the compound's performance was carried out by rating the disease severity (0-100% scale) on treated plants on 3, 7, 10 and 15 days after application. Efficacy (% control) of the compounds was calculated by comparing the disease rating in the treatment with the one of the untreated control. The treated plants were also assessed for plant compatibility by recording symptoms like necrosis, chlorosis and stunting.

SMILES	pest or weed control at 500 ppm
O=C(c1cccc(F)c1)N1CC[C@H](Oc2ccc(-c3noc(C(F)(F)F)n3)cn2)C1 [Compound 47, (S)-(3-fluorophenyl)(3-((5-(5-(trifluoromethyl)-1,2,4-oxadiazol-3-yl)pyridin-2-yl)oxy)pyrrolidin-1-yl)methanone]	> 70%
O=C(c1ccccc1)N1CC[C@H](Oc2ccc(-c3noc(C(F)(F)F)n3)cc2)C1 [Compound 15, (S)-phenyl(3-(4-(5-(trifluoromethyl)-1,2,4-oxadiazol-3-yl)phenoxy)pyrrolidin-1-yl)methanone]	> 70%
COc1ccc(C(=O)N2CC[C@H](Oc3ccc(-c4noc(C(F)(F)F)n4)cn3)C2)cc1 [Compound 46, (S)-(4-methoxyphenyl)(3-((5-(5-(trifluoromethyl)-1,2,4-oxadiazol-3-yl)pyridin-2-yl)oxy)pyrrolidin-1-yl)methanone]	> 70%
COc1ccc(S(=O)(=O)N2CC[C@H](Oc3ccc(-c4noc(C(F)(F)F)n4)cn3)C2)cc1 [Compound 105, (S)-3-(6-((1-((4-methoxyphenyl)sulfonyl)pyrrolidin-3-yl)oxy)pyridin-3-yl)-5-(trifluoromethyl)-1,2,4-oxadiazole]	> 70%
CC(C)(C)OC(=O)N1CC[C@@H](Sc2ccc(-c3noc(C(F)(F)F)n3)cc2)C1 [Compound 157, tert-butyl (R)-3-((4-(5-(trifluoromethyl)-1,2,4-oxadiazol-3-yl)phenyl)thio)pyrrolidine-1-carboxylate]	> 70%
O=C(c1cccc(Br)c1)N1CC[C@H](Oc2ccc(-c3noc(C(F)(F)F)n3)cc2)C1 [Compound 3, (S)-(3-bromophenyl)(3-(4-(5-(trifluoromethyl)-1,2,4-oxadiazol-3-yl)phenoxy)pyrrolidin-1-yl)methanone]	> 70%
O=C(c1cccnc1)N1CC[C@H](Oc2ccc(-c3noc(C(F)(F)F)n3)nc2)C1 [Compound 31, (S)-pyridin-3-yl(3-((6-(5-(trifluoromethyl)-1,2,4-oxadiazol-3-yl)pyridin-3-yl)oxy)pyrrolidin-1-yl)methanone]	> 70%
O=S(=O)(Cc1ccccc1)N1CC(Oc2ccc(-c3noc(C(F)(F)F)n3)cc2)C1 [Compound 22, 3-(4-((1-(benzylsulfonyl)azetidin-3-yl)oxy)phenyl)-5-(trifluoromethyl)-1,2,4-oxadiazole]	> 70%
CCS(=O)(=O)N1CC[C@H](Oc2ccc(-c3noc(C(F)(F)F)n3)cn2)C1 [Compound 50, (S)-3-(6-((1-(ethylsulfonyl)pyrrolidin-3-yl)oxy)pyridin-3-yl)-5-(trifluoromethyl)-1,2,4-oxadiazole]	> 70%
O=C(c1ccccc1F)N1CC[C@H](Oc2ccc(-c3noc(C(F)(F)F)n3)cc2F)C1 [Compound 52, (S)-(3-(2-fluoro-4-(5-(trifluoromethyl)-1,2,4-oxadiazol-3-yl)phenoxy)pyrrolidin-1-yl)(2-fluorophenyl)methanone]	> 70%
O=S(=O)(c1cccc(C(F)(F)F)c1)N1CC[C@H](Oc2ccc(-c3noc(C(F)(F)F)n3)cn2)C1 [Compound 151, (S)-5-(trifluoromethyl)-3-(6-((1-((3-(trifluoromethyl)phenyl)sulfonyl)pyrrolidin-3-yl)oxy)pyridin-3-yl)-1,2,4-oxadiazole]	> 70%
O=C(c1cccc(F)c1)N1CC(Oc2ccc(-c3noc(C(F)(F)F)n3)cc2)C1 [Compound 18, (3-fluorophenyl)(3-(4-(5-(trifluoromethyl)-1,2,4-oxadiazol-3-yl)phenoxy)azetidin-1-yl)methanone]	> 70%
O=C(c1cccnc1)N1CC[C@@H](Oc2ccc(-c3noc(C(F)(F)F)n3)cn2)C1 [Compound 79, (R)-pyridin-3-yl(3-((5-(5-(trifluoromethyl)-1,2,4-oxadiazol-3-yl)pyridin-2-yl)oxy)pyrrolidin-1-yl)methanone]	> 70%
C[N+]1(C)CC[C@H](Oc2ccc(-c3noc(C(F)(F)F)n3)cn2)C1 [Compound 51, (S)-1,1-dimethyl-3-((5-(5-(trifluoromethyl)-1,2,4-oxadiazol-3-yl)pyridin-2-yl)oxy)pyrrolidin-1-ium 2,2,2-trifluoroacetate]	> 70%
O=C(c1ccc(C(F)(F)F)cc1)N1CCC(Oc2cccc(-c3noc(C(F)(F)F)n3)c2)C1 (centres unmarked) [Compound 143, (3-(3-(5-(trifluoromethyl)-1,2,4-oxadiazol-3-yl)phenoxy)pyrrolidin-1-yl)(4-(trifluoromethyl)phenyl)methanone]	> 70%
O=C(c1ccc(F)cc1)N1CC[C@H](Oc2ccc(-c3noc(C(F)(F)F)n3)cc2)C1 [Compound 14, (S)-(4-fluorophenyl)(3-(4-(5-(trifluoromethyl)-1,2,4-oxadiazol-3-yl)phenoxy)pyrrolidin-1-yl)methanone]	> 70%

SMILES	pest or weed control at 500 ppm
O=C(c1cccc(F)c1)N1CC[C@H](Oc2ccc(-c3noc(C(F)(F)F)n3)cc2F)C1 [Compound 54, (S)-(3-(2-fluoro-4-(5-(trifluoromethyl)-1,2,4-oxadiazol-3-yl)phenoxy)pyrrolidin-1-yl)(3-fluorophenyl)methanone]	> 70%
O=S(=O)(c1ccc(Cl)cc1Cl)N1CC[C@H](Oc2ccc(-c3noc(C(F)(F)F)n3)cc2)C1 [Compound 120, (S)-3-(4-((1-((2,4-dichlorophenyl)sulfonyl)pyrrolidin-3-yl)oxy)phenyl)-5-(trifluoromethyl)-1,2,4-oxadiazole]	> 70%
O=C(Nc1ccccc1F)N1CC[C@H](Oc2ccc(-c3noc(C(F)(F)F)n3)cc2)C1 [Compound 37, (S)—N-(2-fluorophenyl)-3-(4-(5-(trifluoromethyl)-1,2,4-oxadiazol-3-yl)phenoxy)pyrrolidine-1-carboxamide]	> 70%
O=C(C1CCC1)N1CC[C@H](Oc2ccc(-c3noc(C(F)(F)F)n3)cc2)C1 [Compound 9, (S)-cyclobutyl(3-(4-(5-(trifluoromethyl)-1,2,4-oxadiazol-3-yl)phenoxy)pyrrolidin-1-yl)methanone]	> 70%
Cc1ccc(S(=O)(=O)N2CC[C@H](Oc3ccc(-c4noc(C(F)(F)F)n4)cn3)C2)cc1 [Compound 107, (S)-3-(6-((1-tosylpyrrolidin-3-yl)oxy)pyridin-3-yl)-5-(trifluoromethyl)-1,2,4-oxadiazole]	> 70%
CC(C)(C)OC(=O)N1CC[C@H](Oc2ccc(-c3noc(C(F)(F)F)n3)cc2)C1 [Compound 23, tert-butyl (S)-3-(4-(5-(trifluoromethyl)-1,2,4-oxadiazol-3-yl)phenoxy)pyrrolidine-1-carboxylate]	> 70%
O=C(c1cccc(Cl)c1)N1CCC(Oc2cccc(-c3noc(C(F)(F)F)n3)c2)C1 (centres unmarked) [Compound 144, (3-chlorophenyl)(3-(3-(5-(trifluoromethyl)-1,2,4-oxadiazol-3-yl)phenoxy)pyrrolidin-1-yl)methanone]	> 70%
O=S(=O)(c1ccc(Br)cc1)N1CC[C@H](Oc2ccc(-c3noc(C(F)(F)F)n3)cc2)C1 [Compound 116, (S)-3-(4-((1-((4-bromophenyl)sulfonyl)pyrrolidin-3-yl)oxy)phenyl)-5-(trifluoromethyl)-1,2,4-oxadiazole]	> 70%
O=C(c1ccccc1)N1CCC(Oc2ccc(-c3noc(C(F)(F)F)n3)cc2)CC1 [Compound 81, phenyl(4-(4-(5-(trifluoromethyl)-1,2,4-oxadiazol-3-yl)phenoxy)piperidin-1-yl)methanone]	> 70%
O=S(=O)(c1ccc(F)cc1F)N1CC[C@H](Oc2ccc(-c3noc(C(F)(F)F)n3)cc2)C1 [Compound 42, (S)-3-(4-((1-((2,4-difluorophenyl)sulfonyl)pyrrolidin-3-yl)oxy)phenyl)-5-(trifluoromethyl)-1,2,4-oxadiazole]	> 70%
CN(c1ccc(-c2noc(C(F)(F)F)n2)cc1)C1CN(C(=O)C(C)(C)C)C1 [Compound 129, 2,2-dimethyl-1-(3-(methyl(4-(5-(trifluoromethyl)-1,2,4-oxadiazol-3-yl)phenyl)amino)azetidin-1-yl)propan-1-one]	> 70%
O=S(=O)(N1CC[C@H](Oc2ccc(-c3noc(C(F)(F)F)n3)cc2)C1)C(F)(F)F [Compound 114, (S)-5-(trifluoromethyl)-3-(4-((1-((trifluoromethyl)sulfonyl)pyrrolidin-3-yl)oxy)phenyl)-1,2,4-oxadiazole]	> 70%
Cc1cccc(S(=O)(=O)N2CC[C@H](Oc3ccc(-c4noc(C(F)(F)F)n4)cn3)C2)c1 [Compound 112, (S)-3-(6-((1-(m-tolylsulfonyl)pyrrolidin-3-yl)oxy)pyridin-3-yl)-5-(trifluoromethyl)-1,2,4-oxadiazole]	> 70%
CN(c1ccc(-c2noc(C(F)(F)F)n2)cc1)C1CN(C(=O)OC(C)(C)C)C1 [Compound 80, tert-butyl 3-(methyl(4-(5-(trifluoromethyl)-1,2,4-oxadiazol-3-yl)phenyl)amino)azetidine-1-carboxylate]	> 70%
O=C(c1ccccc1F)N1CC[C@@H](Oc2ccc(-c3noc(C(F)(F)F)n3)cn2)C1 [Compound 74, (R)-(2-fluorophenyl)(3-((5-(5-(trifluoromethyl)-1,2,4-oxadiazol-3-yl)pyridin-2-yl)oxy)pyrrolidin-1-yl)methanone]	> 70%
CC(C)(C)C(=O)N1CCC(Oc2cccc(-c3noc(C(F)(F)F)n3)c2)C1 (centres unmarked) [Compound 130, 2,2-dimethyl-1-(3-(3-(5-(trifluoromethyl)-1,2,4-oxadiazol-3-yl)phenoxy)pyrrolidin-1-yl)propan-1-one]	> 70%
